Converted amounts (≈) assume the structure as drawn.
Key:
[1] = tested on: Poliovirus 3; assay: microbe, parasite or virus in culture; format: cell-based; details: Enterovirus C, read-out: Poliovirus3 EC50
[2] = in vitro; details: human

CC(C)c1ccc2c(c1)OC1(O)c3ccccc3C(=O)C21NC(=O)c1c[nH]c2ccccc12 (centres unmarked) [Example 209, N-(4b-Hydroxy-7-isopropyl-10-oxo-9b,10-dihydro-4bH-indeno[1,2-b]benzofuran-9b-yl)-1H-indole-3-carboxamide]
EC50 [1]: 0.036 µg/mL (≈ 0.0821 µM) | CC50 [2]: 8.43 µg/mL (≈ 19.2 µM) | CC50 ([2]; Picorana CC50): > 10 µg/mL

CC(C)c1ccc2c(c1)OC1(O)c3cccc(N)c3C(=O)C21NC(=O)c1n[nH]c2ccccc12 (centres unmarked) [Example 212, N-(1-Amino-4b-hydroxy-7-isopropyl-10-oxo-9b,10-dihydro-4bH-benzo[d]indeno[1,2-b]furan-9b-yl)-1H-indazole-3-carboxamide]
EC50 [1]: < 0.01 µg/mL | CC50 [2]: > 10 µg/mL

CC(C)c1ccc2c(c1)OC1(O)c3cccc(N)c3C(=O)C21NC(=O)Cn1cnnn1 (centres unmarked) [Example 213, N-(1-Amino-4b-hydroxy-7-isopropyl-10-oxo-9b,10-dihydro-4bH-benzo[d]indeno[1,2-b]furan-9b-yl)-2-(1H-tetrazol-1-yl)acetamide]
EC50 [1]: < 0.01 µg/mL | CC50 [2]: > 10 µg/mL

CC(C)c1ccc2c(c1)OC1(O)c3cccc(N)c3C(=O)C21NC(=O)c1cnc2ccccc2c1 (centres unmarked) [Example 214, N-(1-Amino-4b-hydroxy-7-isopropyl-10-oxo-9b,10-dihydro-4bH-indeno[1,2-b]benzofuran-9b-yl)quinoline-3-carboxamide]
EC50 [1]: < 0.01 µg/mL | CC50 [2]: > 10 µg/mL

CC(C)c1ccc2c(c1)OC1(O)c3cccc(N)c3C(=O)C21NC(=O)c1ccnc2ccccc12 (centres unmarked) [Example 215, N-(1-Amino-4b-hydroxy-7-isopropyl-10-oxo-9b,10-dihydro-4bH-indeno[1,2-b]benzofuran-9b-yl)quinoline-4-carboxamide]
EC50 [1]: < 0.01 µg/mL | CC50 [2]: > 10 µg/mL

COc1sccc1C(=O)NC12C(=O)c3c(N)cccc3C1(O)Oc1cc(C(C)C)ccc12 (centres unmarked) [Example 217, N-(1-Amino-4b-hydroxy-7-isopropyl-10-oxo-9b,10-dihydro-4bH-indeno[1,2-b]benzofuran-9b-yl)-2-methoxythiophene-3-carboxamide]
EC50 [1]: 0.038 µg/mL (≈ 0.0843 µM) | CC50 [2]: > 10 µg/mL | CC50 ([2]; Picorana CC50): 4.24 µg/mL (≈ 9.41 µM)

CC(C)c1ccc2c(c1)OC1(O)c3ccccc3C(=O)C21NC(=O)c1ccc2[nH]nnc2c1 (centres unmarked) [Example 221, N-(4b-Hydroxy-7-isopropyl-10-oxo-9b,10-dihydro-4bH-benzo[d]indeno[1,2-b]furan-9b-yl)-1H-benzo[d][1,2,3]triazole-5-carboxamide]
EC50 [1]: 0.016 µg/mL (≈ 0.0363 µM) | CC50 [2]: 6.53 µg/mL (≈ 14.8 µM) | CC50 ([2]; Picorana CC50): 14.5 µg/mL (≈ 32.9 µM)

CC(C)c1ccc2c(c1)OC1(O)c3ccccc3C(=O)C21NC(=O)c1ccc([N+](=O)[O-])s1 (centres unmarked) [Example 223, N-(4b-hydroxy-7-isopropyl-10-oxo-9b,10-dihydro-4bH-benzo[d]indeno[1,2-b]furan-9b-yl)-5-nitrothiophene-2-carboxamide]
EC50 [1]: < 0.01 µg/mL | CC50 [2]: 4.36 µg/mL (≈ 9.68 µM) | CC50 ([2]; Picorana CC50): 7.46 µg/mL (≈ 16.6 µM)

CC(C)c1ccc2c(c1)OC1(O)c3cccc(N)c3C(=O)C21NC(=O)C(=O)c1cccs1 (centres unmarked) [Example 231, N-(1-Amino4b-hydroxy-7-isopropyl-10-oxo-9b,10-dihydro-4bH-indeno[1,2-b]benzofuran-9b-yl)-2-oxo-2-(thiophen-2-yl)acetamide]
EC50 [1]: < 0.01 µg/mL | CC50 [2]: > 10 µg/mL | CC50 ([2]; Picorana CC50): 8.64 µg/mL (≈ 19.3 µM)

CC(C)c1ccc2c(c1)OC1(O)c3cccc(N)c3C(=O)C21NC(=O)c1ccc[nH]1 (centres unmarked) [Example 233, N-(1-Amino-4b-hydroxy-7-isopropyl-10-oxo-9b,10-dihydro-4bH-indeno[1,2-b]benzofuran-9b-yl)-1H-pyrrole-2-carboxamide]
EC50 [1]: < 0.01 µg/mL | CC50 [2]: > 10 µg/mL | CC50 ([2]; Picorana CC50): 31.9 µg/mL (≈ 79 µM)

COc1cc(C(=O)NC23C(=O)c4c(N)cccc4C2(O)Oc2cc(C(C)C)ccc23)ccn1 (centres unmarked) [Example 234, N-(1-Amino-4b-hydroxy-7-isopropyl-10-oxo-9b,10-dihydro-4bH-indeno[1,2-b]benzofuran-9b-yl)-2-methoxyisonicotinamide]
EC50 [1]: < 0.01 µg/mL | CC50 [2]: > 10 µg/mL | CC50 ([2]; Picorana CC50): 9.1 µg/mL (≈ 20.4 µM)

CC(C)c1ccc2c(c1)OC1(O)c3cccc(N)c3C(=O)C21NC(=O)c1cc2ccccc2s1 (centres unmarked) [Example 235, N-(1-Amino-4b-hydroxy-7-isopropyl-10-oxo-9b,10-dihydro-4bH-benzo[d]indeno[1,2-b]furan-9b-yl)benzo[b]thiophene-2-carboxamide]
EC50 [1]: < 0.01 µg/mL | CC50 [2]: 8.88 µg/mL (≈ 18.9 µM) | CC50 ([2]; Picorana CC50): 7.97 µg/mL (≈ 16.9 µM)

CC(C)c1ccc2c(c1)OC1(O)c3cccc(N)c3C(=O)C21NC(=O)c1cnnc2ccccc12 (centres unmarked) [Example 238, N-(1-Amino-4b-hydroxy-7-isopropyl-10-oxo-9b,10-dihydro-4bH-benzo[d]indeno[1,2-b]furan-9b-yl)cinnoline-4-carboxamide]
EC50 [1]: < 0.01 µg/mL | CC50 [2]: > 10 µg/mL | CC50 ([2]; Picorana CC50): 8.33 µg/mL (≈ 17.9 µM)

CC(C)c1ccc2c(c1)OC1(O)c3ccccc3C(=O)C21NC(=O)c1ccc2[nH]cnc2c1 (centres unmarked) [Example 240, N-(4b-hydroxy-7-isopropyl-10-oxo-9b,10-dihydro-4bH-benzo[d]indeno[1,2-b]furan-9b-yl)-1H-benzo[d]imidazole-5-carboxamide]
EC50 [1]: < 0.01 µg/mL | CC50 [2]: > 10 µg/mL | CC50 ([2]; Picorana CC50): 8.25 µg/mL (≈ 18.8 µM)

CC(C)c1ccc2c(c1)OC1(O)c3cccc(N)c3C(=O)C21NC(=O)c1n[nH]cc1[N+](=O)[O-] (centres unmarked) [Example 242, N-(1-Amino-4b-hydroxy-7-isopropyl-10-oxo-9b,10-dihydro-4bH-benzo[d]indeno[1,2-b]furan-9b-yl)-4-nitro-1H-pyrazole-3-carboxamide]
EC50 [1]: < 0.01 µg/mL | CC50 [2]: > 10 µg/mL | CC50 ([2]; Picorana CC50): 8.55 µg/mL (≈ 19 µM)

Cc1ccnc(C(=O)NC23C(=O)c4c(N)cccc4C2(O)Oc2cc(C(C)C)ccc23)c1 (centres unmarked) [Example 243, N-(1-Amino-4b-hydroxy-7-isopropyl-10-oxo-9b,10-dihydro-4bH-benzo[d]indeno[1,2-b]furan-9b-yl)-4-methylpicolinamide]
EC50 [1]: < 0.01 µg/mL | CC50 [2]: > 10 µg/mL | CC50 ([2]; Picorana CC50): 7.36 µg/mL (≈ 17.1 µM)

CC(C)c1ccc2c(c1)OC1(O)c3cccc(N)c3C(=O)C21NC(=O)c1cc(C(F)(F)F)ccn1 (centres unmarked) [Example 244, N-(1-Amino-4b-hydroxy-7-isopropyl-10-oxo-9b,10-dihydro-4bH-benzo[d]indeno[1,2-b]furan-9b-yl)-4-(trifluoromethyl)picolinamide]
EC50 [1]: < 0.01 µg/mL | CC50 [2]: > 10 µg/mL | CC50 ([2]; Picorana CC50): 15.7 µg/mL (≈ 32.5 µM)

CC(C)c1ccc2c(c1)OC1(O)c3cccc(N)c3C(=O)C21NC(=O)c1ccc(C#N)cn1 (centres unmarked) [Example 245, N-(1-Amino-4b-hydroxy-7-isopropyl-10-oxo-9b,10-dihydro-4bH-benzo[d]indeno[1,2-b]furan-9b-yl)-5-cyanopicolinamide]
EC50 [1]: < 0.01 µg/mL | CC50 [2]: > 10 µg/mL | CC50 ([2]; Picorana CC50): 8.47 µg/mL (≈ 19.2 µM)

CC(C)c1ccc2c(c1)OC1(O)c3cccc(N)c3C(=O)C21NC(=O)c1ncccc1Cl (centres unmarked) [Example 246, N-(1-Amino-4b-hydroxy-7-isopropyl-10-oxo-9b,10-dihydro-4bH-benzo[d]indeno[1,2-b]furan-9b-yl)-3-chloropicolinamide]
EC50 [1]: < 0.01 µg/mL | CC50 [2]: > 10 µg/mL | CC50 ([2]; Picorana CC50): 9.84 µg/mL (≈ 21.9 µM)

CC(C)c1ccc2c(c1)OC1(O)c3cccc(N)c3C(=O)C21NC(=O)c1cc2ccccc2cn1 (centres unmarked) [Example 248, N-(1-Amino-4b-hydroxy-7-isopropyl-10-oxo-9b,10-dihydro-4bH-indeno[1,2-b]benzofuran-9b-yl)isoquinoline-3-carboxamide]
EC50 [1]: 0.027 µg/mL (≈ 0.058 µM) | CC50 [2]: > 10 µg/mL | CC50 ([2]; Picorana CC50): 4.99 µg/mL (≈ 10.7 µM)

Source: patent publication US9890133B2 (priority 2011, dated 2018)
